Columns and labels:
Type in all cases: cell-based
[1] = test system: 1A9PTX22 ovarian carcinoma; assay: Anchorage Dependent Growth Monolayer Assay (ADGMA), 1A9PTX22; details: Homo sapiens, 1A9/ptx-22, 72 h; 1A9PTX22 ovarian carcinoma cells (paclitaxel-selected subline), 3-day exposure, MTT, A540; * = average of two independent experiments
From the text: (§1) As indicated above, all of the compounds of formula I are anti-tumor agents and are, therefore, useful in inhibiting the growth of various lymphomas, sarcomas, carcinomas, myelomas, and leukemia cell lines. […] This assay was adapted from the 60 cell line assay used by the National Cancer Institute (NCI) with the following modifications:
(§2) 1) four cell lines representative for the important tumor types, viz., MIP 101 colon carcinoma, HCT 116 colon carcinoma, 1A9 ovarian carcinoma and 1A9PTX22 ovarian carcinoma were utilized; and 2) a tetrazolium derivative, viz., MTT, was utilized to determine cell density.
(§3) The ADGMA compares the number of viable cells following a 3-day exposure to a test compound relative to the number of cells present at the time the test compound was added. […] The absorbance at 540 nm (A540) of the formazan derivative is proportional to the number of viable cells. The IC50 for a test compound is the concentration of compound required to reduce the final cell number to 50% of the final control cell number. If cell proliferation is inhibited, the assay further defines compounds as cytostatic (cell number after 3-day compound incubation>cell number at time of compound addition) or cytotoxic (cell number after 3-day compound incubation<cell number at time of compound addition).
(§4) The HCT 116 colon carcinoma cell line was obtained from the American Type Culture Collection (ATCC, Rockville, Md.). The MIP 101 colon carcinoma was obtained from Dr. Robert Kramer (Bristol Meyers Squibb) and was previously described (Niles R M, Wilhelm S A, Steele G D JR, Burke B, Christensen T, Dexter D, O'Brien M J, Thomas P, Zamcheck N. Isolation and characterization of an undifferentiated human colon carcinoma cell line (MIP 101). Cancer Invest. 1987;5(6):545–52). The 1A9 and the 1A9PTX22 ovarian tumor cell lines were obtained from Dr. Tito Fojo, Medicine Branch, Division of Clinical Sciences, National Cancer Institute, National Institutes of Health, Bethesda, Md. 20892. The 1A9 is a clone of the ovarian carcinoma cell line, A2780 (Giannakakou P, Sackett, D L, Kang Y-K, Zhan Z, Buters J T M, Fojo T, Poruchynsky M S. Paclitaxel-resistant human ovarian cancer cells have mutant β-tubulins that impaired paclitaxel-driven polymerization. J. Biol. Chem. 1997, 272(4):17118–17125). The 1A9PTX22 subline was isolated as an individual clone from the 1A9 cell line in a single step selection by exposure to 5 ng/mL paclitaxel in the presence of 5 μg/mL of verapamil. All cell lines were used between passages 4–20 following thawing. MIP 101 colon carcinoma, HCT 116 colon carcinoma, 1A9 ovarian carcinoma and 1A9PTX22 ovarian carcinoma cell lines are maintained and plated in RPMI 1640 medium containing 10% fetal bovine serum.
(§5) Cells are trypsinized and counted using a hemacytometer to determine cell concentrations. Cells were then plated in their respective maintenance media (200 μL/well) in 96-well plates at the following concentrations: MIP 101, 2000 cells/well, HCT 116, 2000 cells/well, 1A9, 10000 cells/well, and 1A9PTX22, 10000 cells/well. […] Initial cell densities, assayed one day after plating, are roughly 0.10–0.20 A540 absorbance units greater than the media blank. Ninety-six-well plates were seeded on day 0 and the test compounds are added on day 1. A “time 0” plate was created that received media only in row A and one cell line/row in rows B–E. The “time 0” plate was processed 24 hours after plating (at the time when drugs were added to experimental plates), as follows: To each well 5 micoliters of the MTT stock solution (0.5 mg/mL in PBS) was added to each well and then incubated for three hours at 37° C., 5% CO2, in a humidified environment. Media was then carefully and completely removed. Plates were allowed to dry in the dark. Dimethylsulfoxide (DMSO) was added to each well (100 μL/well) and plates were placed on an orbital shaker for 2 hours. […]

HCT 116 colon carcinoma = assay: Anchorage Dependent Growth Monolayer Assay (ADGMA), HCT 116; details: Homo sapiens, 72 h; HCT 116 colon carcinoma cells, 3-day exposure, MTT, A540; * = average of two independent experiments; read-out: IC50 HCT116
From the text: as §1, §2, §3, §4, §5

MIP 101 colon carcinoma = assay: Anchorage Dependent Growth Monolayer Assay (ADGMA), MIP 101; details: Homo sapiens, Colon carcinoma cell, 72 h; MIP 101 colon carcinoma cells, 3-day exposure, MTT, A540; * = average of two independent experiments
From the text: as §1, §2, §3, §4, §5

1A9 ovarian carcinoma = assay: Anchorage Dependent Growth Monolayer Assay (ADGMA), 1A9; details: Homo sapiens, Ovarian carcinoma cell, 72 h; 1A9 ovarian carcinoma cells, 3-day exposure, MTT, A540; * = average of two independent experiments
From the text: as §1, §2, §3, §4, §5

SMILES | IC50 [1] | IC50 (HCT 116 colon carcinoma) | IC50 (MIP 101 colon carcinoma) | IC50 (1A9 ovarian carcinoma)
C=C/C=C\[C@H](C)[C@H](OC(N)=O)[C@@H](C)[C@H](O)[C@@H](C)C/C(C)=C\C(C)C(O)C(C)/C=C\[C@@H](O)C[C@H]1CCCC(=O)O1 (stereo partly drawn) [Ex. 1, 6-[(2S,3Z,8Z,11S,12R,13S,14S,15S,16Z)-14-[(aminocarbonyl)oxy]-2,6,12-trihydroxy-5,7,9,11,13,15-hexamethyl-3,8,16,18-nonadecatetraenyl]tetrahydro-(6R)-2H-pyran-2-one] | 0.007 ± 0.002 µM | 0.007 ± 0.005 µM | 0.06 ± 0.01 µM | 0.006 ± 0.002 µM
C=C/C=C\[C@H](C)C(OC(N)=O)C(C)C(O)C(C)C/C(C)=C\[C@H](C)[C@@H](O)[C@@H](C)COC(=O)NC1CCCCC1 (stereo partly drawn) [Ex. 2, (5Z,8S,9R,10S,11S,12S,13Z)-11-[(aminocarbonyl)oxy]-3,9-dihydroxy-2,4,6,8, 10,12-hexamethyl-5,13,15-hexadecatrienyl ester cyclohexylcarbamic acid] | 0.4 µM | 0.4 µM | 3.2 µM | 0.5 µM
C=C/C=C\[C@H](C)C(OC(N)=O)C(C)C(O)C(C)C/C(C)=C\[C@H](C)[C@@H](O)[C@@H](C)/C=C\COc1ccccc1 (stereo partly drawn) [Ex. 3, (2Z,7Z,10S,11R,12S,13S,14S,15Z)-4,6,8,10,12,14-hexamethyl-1-phenoxy-2,7,15,17-octadecatetraene-5,11,13-triol-13-carbamate] | 0.1 ± 0.04 µM | 0.2 ± 0.1 µM | 0.4 ± 0.1 µM | 0.3 ± 0.09 µM
C=C/C=C\[C@H](C)C(OC(N)=O)C(C)C(O)C(C)C/C(C)=C\[C@H](C)[C@@H](O)[C@@H](C)/C=C\C(=O)N(C)c1ccccc1 (stereo partly drawn) [Ex. 4, (2Z,7Z,10S,11R,12S,13S,14S,15Z)-13-[(aminocarbonyl)oxy]-5,11-dihydroxy-N,4,6,8,10,12,14-heptamethyl-N-phenyl 2,7,15,17-octadecatetraenamide] | 0.4 µM | 0.8 µM | 3.2 µM | 0.5 µM
C=C/C=C\[C@H](C)C(OC(N)=O)C(C)C(O)C(C)C/C(C)=C\[C@H](C)[C@@H](O)[C@@H](C)CN(C)C(=O)CC1CCCCC1 (some centres unmarked) [Ex. 5] | 0.08 µM | 0.3 µM | 0.6 µM | 0.4 µM
C=C/C=C\[C@H](C)C(OC(N)=O)C(C)C(O)C(C)C/C(C)=C\[C@H](C)[C@@H](O)[C@@H](C)/C=C\C(O)CC1CCCC1 (stereo partly drawn) [Ex. 6, (2S,3Z,5S,6S,7S,8Z,11S,12R,13R,14S,15S,16Z)-1-cyclopentyl-5,7,9,11,13,15-hexamethyl-3,8,16,18-nonadecatetraene-2,6,12,14-tetrol-14-carbamate] | 0.001 µM | 0.001 µM | 0.006 µM | 0.0003 µM
C=C/C=C\[C@H](C)C(OC(N)=O)C(C)C(O)C(C)C/C(C)=C\[C@H](C)[C@@H](O)[C@@H](C)/C=C\C(O)CC(C)C (stereo partly drawn) [Ex. 7, (2S,3Z,5S,6S,7S,8Z,11S,12R,13R,14S,15S,16Z)-1-isopropyl-5,7,9,11,13,15-hexamethyl-3,8,16,18-nonadecatetraene-2,6,12,14-tetrol-14-carbamate] | 0.06 µM | 0.03 µM | 0.1 µM | 0.03 µM
CC(=O)O[C@H]1C(=O)[C@@]2(C)[C@H]([C@H](OC(=O)c3ccccc3)[C@]3(O)C[C@H](OC(=O)[C@H](O)[C@@H](NC(=O)c4ccccc4)c4ccccc4)C(C)=C1C3(C)C)[C@]1(OC(C)=O)CO[C@@H]1C[C@@H]2O [Paclitaxel, reference compound] | 0.001 ± 0.001 µM | 0.0003 ± 0.0002 µM | 0.2 ± 0.06 µM | 0.047 ± 0.007 µM

Reference: US7192980B2, “Certain substituted polyketides, pharmaceutical compositions containing them and their use in treating tumors” (Novartis AG, priority 2001, dated 2007)
